Patent publication US20120282356A1, “COMPOSITIONS FOR PREVENTION AGAINST SPOILAGE BY MOULDS AND YEASTS AND USES AND PRODUCTS RELATED THERETO” (MARS INCORPORATED, priority 2009, published 2012)

System: Aspergillus niger DSMZ 737
Assay: Minimum Inhibition Concentration (MIC) test in YG broth cell culture plates
Assay type: cell-based
Conditions: substance alone, 3 days at 30° C., no visible growth of mycelium
Procedure: Further tests have been conducted to establish synergistic activity of the antimycotic cocktails of the present invention. These tests are based on determination of the Minimum Inhibition Concentration (MIC).
For the tests, cell culture plates with YG broth as a base were used. Test samples were inoculated with a conidial suspension of Aspergillus niger DSMZ 737 and incubated for 3 days at 30° C. The targeted spore count was at approximately 10^5 spores/ml. As Minimal Inhibition Concentration (MIC) the concentration of active ingredient with no visible growth of mycelium in the cavity was defined. In addition, results were confirmed microscopically and in a culture on YGC plates.
To dissolve the different mixtures, one of the following media was used as appropriate: distilled water; distilled water+0.5% Tween 80; distilled water+0.4% Lecithine.

| Compound | MIC (Aspergillus niger, DSMZ737, 72 h) | Minimum Inhibition Concentration (MIC) |
| --- | --- | --- |
| CCCCCCCC(=O)O [caprylic acid] | 2000 µg/mL | – |
| O=C(O)CC(O)C(=O)O (stereo not drawn) [malic acid] | – | no MIC |
| cinnamon aldehyde | – | 200 ppm |
